Legend:
[1] = system: chiens; assay: Coronary balloon angioplasty occlusion (15 min) and reperfusion in anaesthetised dogs, first series; type: in vivo
Protocol: (§1) 1 - On a réalisé des essais comparatifs chez des chiens auxquels on a administré par voie intraveineuse en 15 minutes : • soit du buflomédil (chlorhydrate) à la dose de 10 mg/kg; • soit un placebo.
Le protocole opératoire était le suivant :
(§2) les chiens ont reçu une prémédication consistant en 1,0 mg par kg de sulfate de morphine après une nuit de diète ainsi que 325 mg d'aspirine par voie orale.
(§3) Les chiens ont été anesthésiés avec 12,5 mg/kg de thiopental et 72 mg/kg de chloralose par voie intraveineuse. On met en place un cathéter au niveau de l'artère fémorale pour la mesure de la pression artérielle et une canule sur la veine fémorale pour l'administration du produit à tester. L'artère carotide gauche reçoit une canule pour la mise en place du cathéter d'angioplastie, tandis que l'on met en place un cathéter au niveau du ventricule gauche via l'artère fémorale contralatérale.
Les animaux sont alors héparinisés avec 500 unités U.I. par kg par voie I.V. On procède alors à l'administration du produit à tester ou du placebo à raison, pour le buflomédil, de 10 mg par mn. On administre ensuite de la lidocaïne par voie I.V. à raison de 1 mg/kg sous forme de bolus, puis par perfusion à raison de 1 mg par mn. […]

[2] = system: chiens; assay: Coronary balloon occlusion (15 min) with follow-up of reperfusion in dogs, second series; type: in vivo; conditions: 10 mg/kg i.v.
Protocol: as §1, §2, §3
Les animaux sont alors héparinisés avec 500 unités U.I. par kg par voie I.V. On procède alors à l'administration du produit à tester ou du placebo à raison, pour le buflomédil, de 10 mg par mn. On administre ensuite de la lidocaïne par voie I.V. à raison de 1 mg/kg sous forme de bolus, puis par perfusion à raison de 1 mg par mn.
30 mn après la fin de la perfusion, on met en place un ballonnet d'angioplastie de 2,5-3,5 mm choisi en fonction de la taille des artères coronaires dans l'artère coronaire descendante antérieure gauche. Le ballon a été gonflé à une pression de 4.10⁵ Pa pendant 15 mn.
2 - Dans une deuxième série d'essais comparatifs, on a utilisé le même mode opératoire et les mêmes produits (buflomédil chlorhydrate à la dose de 10 mg/kg d'une part et placebo d'autre part) et on a suivi la reperfusion après 15 minutes d'occlusion avec un ballonnet.

[3] = at the end of the occlusion, versus placebo

With `COc1cc(OC)c(C(=O)CCCN2CCCC2)c(OC)c1` [buflomédil, 4-(1-pyrrolidinyl)-1-(2,4,6-triméthoxyphényl)-1-butanone] the “flux sanguins tissulaires au niveau du myocarde” value ([1]; 10 mg/kg i.v., measured during ischaemia in the ischaemic regions, versus placebo (Figure)) was “plus élevés”, the “fibrillation ventriculaire lors de la reperfusion” value ([1]; buflomédil (chlorhydrate) 10 mg/kg i.v. over 15 min, 15 min balloon occlusion, placebo: 4 cas sur 10) was “n'a pas observé de fibrillation ventriculaire” and the “fraction d'éjection” value ([2]; 30 minutes after reperfusion, placebo 69 %) was 89 % de la valeur normale du groupe. The “fraction d'éjection” value ([2]; 60 minutes after reperfusion, placebo 74 %) was 95%, the zone de dysfonctionnement ([2]; after reperfusion, versus placebo) was “diminution” and the “fraction d'éjection” value [2, 3] was “n'a pas observé à la fin de l'occlusion de différence”. The perfusion sanguine transmurale [2, 3] was “n'a pas observé à la fin de l'occlusion de différence” and the “flux pendant la reperfusion” value ([2]; during reperfusion, versus placebo) was “flux accru”.

Source: patent EP0487382A1, “Use of buflomedil for the protection of the myocardium by coronary angioplasty” (LABORATOIRE L. LAFON, priority 1990, dated 1992)
